{
  "source": "BigSolDB 2.1",
  "data": [
    {"smiles": "CC1(C)NC(=O)NC1=O", "values": [
      {"measurement": "solubility (mole fraction)", "setting": "in acetonitrile, 283.15 K", "value": 0.0123},
      {"measurement": "solubility (mole fraction)", "setting": "in acetonitrile, 288.15 K", "value": 0.0144},
      {"measurement": "solubility (mole fraction)", "setting": "in acetonitrile, 293.15 K", "value": 0.017},
      {"measurement": "solubility (mole fraction)", "setting": "in acetonitrile, 298.15 K", "value": 0.0196},
      {"measurement": "solubility (mole fraction)", "setting": "in acetonitrile, 303.15 K", "value": 0.0227},
      {"measurement": "solubility (mole fraction)", "setting": "in acetonitrile, 308.15 K", "value": 0.026},
      {"measurement": "solubility (mole fraction)", "setting": "in acetonitrile, 313.15 K", "value": 0.0294},
      {"measurement": "solubility (mole fraction)", "setting": "in acetonitrile, 318.15 K", "value": 0.0345},
      {"measurement": "solubility (mole fraction)", "setting": "in acetonitrile, 323.15 K", "value": 0.039},
      {"measurement": "solubility (mole fraction)", "setting": "in ethanol, 283.15 K", "value": 0.0412},
      {"measurement": "solubility (mole fraction)", "setting": "in ethanol, 288.15 K", "value": 0.0465},
      {"measurement": "solubility (mole fraction)", "setting": "in ethanol, 293.15 K", "value": 0.0526},
      {"measurement": "solubility (mole fraction)", "setting": "in ethanol, 298.15 K", "value": 0.0592},
      {"measurement": "solubility (mole fraction)", "setting": "in ethanol, 303.15 K", "value": 0.0672},
      {"measurement": "solubility (mole fraction)", "setting": "in ethanol, 308.15 K", "value": 0.0757},
      {"measurement": "solubility (mole fraction)", "setting": "in ethanol, 313.15 K", "value": 0.0846},
      {"measurement": "solubility (mole fraction)", "setting": "in ethanol, 318.15 K", "value": 0.0961},
      {"measurement": "solubility (mole fraction)", "setting": "in ethanol, 323.15 K", "value": 0.108},
      {"measurement": "solubility (mole fraction)", "setting": "in ethyl acetate, 283.15 K", "value": 0.0118},
      {"measurement": "solubility (mole fraction)", "setting": "in ethyl acetate, 288.15 K", "value": 0.0133},
      {"measurement": "solubility (mole fraction)", "setting": "in ethyl acetate, 293.15 K", "value": 0.0154},
      {"measurement": "solubility (mole fraction)", "setting": "in ethyl acetate, 298.15 K", "value": 0.0175},
      {"measurement": "solubility (mole fraction)", "setting": "in ethyl acetate, 303.15 K", "value": 0.0191},
      {"measurement": "solubility (mole fraction)", "setting": "in ethyl acetate, 308.15 K", "value": 0.0213},
      {"measurement": "solubility (mole fraction)", "setting": "in ethyl acetate, 313.15 K", "value": 0.0236},
      {"measurement": "solubility (mole fraction)", "setting": "in ethyl acetate, 318.15 K", "value": 0.026},
      {"measurement": "solubility (mole fraction)", "setting": "in ethyl acetate, 323.15 K", "value": 0.0289},
      {"measurement": "solubility (mole fraction)", "setting": "in isobutanol, 283.15 K", "value": 0.0242},
      {"measurement": "solubility (mole fraction)", "setting": "in isobutanol, 288.15 K", "value": 0.0284},
      {"measurement": "solubility (mole fraction)", "setting": "in isobutanol, 293.15 K", "value": 0.0328},
      {"measurement": "solubility (mole fraction)", "setting": "in isobutanol, 298.15 K", "value": 0.038},
      {"measurement": "solubility (mole fraction)", "setting": "in isobutanol, 303.15 K", "value": 0.0439},
      {"measurement": "solubility (mole fraction)", "setting": "in isobutanol, 308.15 K", "value": 0.0509},
      {"measurement": "solubility (mole fraction)", "setting": "in isobutanol, 313.15 K", "value": 0.0577},
      {"measurement": "solubility (mole fraction)", "setting": "in isobutanol, 318.15 K", "value": 0.0672},
      {"measurement": "solubility (mole fraction)", "setting": "in isobutanol, 323.15 K", "value": 0.0757},
      {"measurement": "solubility (mole fraction)", "setting": "in isopropanol, 283.15 K", "value": 0.0366},
      {"measurement": "solubility (mole fraction)", "setting": "in isopropanol, 288.15 K", "value": 0.042},
      {"measurement": "solubility (mole fraction)", "setting": "in isopropanol, 293.15 K", "value": 0.0481},
      {"measurement": "solubility (mole fraction)", "setting": "in isopropanol, 298.15 K", "value": 0.0554},
      {"measurement": "solubility (mole fraction)", "setting": "in isopropanol, 303.15 K", "value": 0.063},
      {"measurement": "solubility (mole fraction)", "setting": "in isopropanol, 308.15 K", "value": 0.0714},
      {"measurement": "solubility (mole fraction)", "setting": "in isopropanol, 313.15 K", "value": 0.0803},
      {"measurement": "solubility (mole fraction)", "setting": "in isopropanol, 318.15 K", "value": 0.0914},
      {"measurement": "solubility (mole fraction)", "setting": "in isopropanol, 323.15 K", "value": 0.102},
      {"measurement": "solubility (mole fraction)", "setting": "in methanol, 283.15 K", "value": 0.0647},
      {"measurement": "solubility (mole fraction)", "setting": "in methanol, 288.15 K", "value": 0.0719},
      {"measurement": "solubility (mole fraction)", "setting": "in methanol, 293.15 K", "value": 0.0806},
      {"measurement": "solubility (mole fraction)", "setting": "in methanol, 298.15 K", "value": 0.0896},
      {"measurement": "solubility (mole fraction)", "setting": "in methanol, 303.15 K", "value": 0.0993},
      {"measurement": "solubility (mole fraction)", "setting": "in methanol, 308.15 K", "value": 0.111},
      {"measurement": "solubility (mole fraction)", "setting": "in methanol, 313.15 K", "value": 0.122},
      {"measurement": "solubility (mole fraction)", "setting": "in methanol, 318.15 K", "value": 0.135},
      {"measurement": "solubility (mole fraction)", "setting": "in methanol, 323.15 K", "value": 0.15},
      {"measurement": "solubility (mole fraction)", "setting": "in n-butanol, 283.15 K", "value": 0.026},
      {"measurement": "solubility (mole fraction)", "setting": "in n-butanol, 288.15 K", "value": 0.0296},
      {"measurement": "solubility (mole fraction)", "setting": "in n-butanol, 293.15 K", "value": 0.0338},
      {"measurement": "solubility (mole fraction)", "setting": "in n-butanol, 298.15 K", "value": 0.0389},
      {"measurement": "solubility (mole fraction)", "setting": "in n-butanol, 303.15 K", "value": 0.0447},
      {"measurement": "solubility (mole fraction)", "setting": "in n-butanol, 308.15 K", "value": 0.0509},
      {"measurement": "solubility (mole fraction)", "setting": "in n-butanol, 313.15 K", "value": 0.0574},
      {"measurement": "solubility (mole fraction)", "setting": "in n-butanol, 318.15 K", "value": 0.0661},
      {"measurement": "solubility (mole fraction)", "setting": "in n-butanol, 323.15 K", "value": 0.0737},
      {"measurement": "solubility (mole fraction)", "setting": "in n-pentanol, 283.15 K", "value": 0.0236},
      {"measurement": "solubility (mole fraction)", "setting": "in n-pentanol, 288.15 K", "value": 0.0267},
      {"measurement": "solubility (mole fraction)", "setting": "in n-pentanol, 293.15 K", "value": 0.0305},
      {"measurement": "solubility (mole fraction)", "setting": "in n-pentanol, 298.15 K", "value": 0.0348},
      {"measurement": "solubility (mole fraction)", "setting": "in n-pentanol, 303.15 K", "value": 0.0398},
      {"measurement": "solubility (mole fraction)", "setting": "in n-pentanol, 308.15 K", "value": 0.0453},
      {"measurement": "solubility (mole fraction)", "setting": "in n-pentanol, 313.15 K", "value": 0.0514},
      {"measurement": "solubility (mole fraction)", "setting": "in n-pentanol, 318.15 K", "value": 0.0583},
      {"measurement": "solubility (mole fraction)", "setting": "in n-pentanol, 323.15 K", "value": 0.0641},
      {"measurement": "solubility (mole fraction)", "setting": "in n-propanol, 283.15 K", "value": 0.0326},
      {"measurement": "solubility (mole fraction)", "setting": "in n-propanol, 288.15 K", "value": 0.0373},
      {"measurement": "solubility (mole fraction)", "setting": "in n-propanol, 293.15 K", "value": 0.0424},
      {"measurement": "solubility (mole fraction)", "setting": "in n-propanol, 298.15 K", "value": 0.0476},
      {"measurement": "solubility (mole fraction)", "setting": "in n-propanol, 303.15 K", "value": 0.0543},
      {"measurement": "solubility (mole fraction)", "setting": "in n-propanol, 308.15 K", "value": 0.0616},
      {"measurement": "solubility (mole fraction)", "setting": "in n-propanol, 313.15 K", "value": 0.0687},
      {"measurement": "solubility (mole fraction)", "setting": "in n-propanol, 318.15 K", "value": 0.0788},
      {"measurement": "solubility (mole fraction)", "setting": "in n-propanol, 323.15 K", "value": 0.0881},
      {"measurement": "solubility (mole fraction)", "setting": "in n-propyl acetate, 283.15 K", "value": 0.00923},
      {"measurement": "solubility (mole fraction)", "setting": "in n-propyl acetate, 288.15 K", "value": 0.0105},
      {"measurement": "solubility (mole fraction)", "setting": "in n-propyl acetate, 293.15 K", "value": 0.0118},
      {"measurement": "solubility (mole fraction)", "setting": "in n-propyl acetate, 298.15 K", "value": 0.0138},
      {"measurement": "solubility (mole fraction)", "setting": "in n-propyl acetate, 303.15 K", "value": 0.0155},
      {"measurement": "solubility (mole fraction)", "setting": "in n-propyl acetate, 308.15 K", "value": 0.0172},
      {"measurement": "solubility (mole fraction)", "setting": "in n-propyl acetate, 313.15 K", "value": 0.0193},
      {"measurement": "solubility (mole fraction)", "setting": "in n-propyl acetate, 318.15 K", "value": 0.0215},
      {"measurement": "solubility (mole fraction)", "setting": "in n-propyl acetate, 323.15 K", "value": 0.0234},
      {"measurement": "solubility (mole fraction)", "setting": "in sec-butanol, 283.15 K", "value": 0.0384},
      {"measurement": "solubility (mole fraction)", "setting": "in sec-butanol, 288.15 K", "value": 0.0449},
      {"measurement": "solubility (mole fraction)", "setting": "in sec-butanol, 293.15 K", "value": 0.0505},
      {"measurement": "solubility (mole fraction)", "setting": "in sec-butanol, 298.15 K", "value": 0.058},
      {"measurement": "solubility (mole fraction)", "setting": "in sec-butanol, 303.15 K", "value": 0.0655},
      {"measurement": "solubility (mole fraction)", "setting": "in sec-butanol, 308.15 K", "value": 0.074},
      {"measurement": "solubility (mole fraction)", "setting": "in sec-butanol, 313.15 K", "value": 0.083},
      {"measurement": "solubility (mole fraction)", "setting": "in sec-butanol, 318.15 K", "value": 0.093},
      {"measurement": "solubility (mole fraction)", "setting": "in sec-butanol, 323.15 K", "value": 0.105},
      {"measurement": "solubility (mole fraction)", "setting": "in water, 283.15 K", "value": 0.0163},
      {"measurement": "solubility (mole fraction)", "setting": "in water, 288.15 K", "value": 0.0186},
      {"measurement": "solubility (mole fraction)", "setting": "in water, 293.15 K", "value": 0.0213},
      {"measurement": "solubility (mole fraction)", "setting": "in water, 298.15 K", "value": 0.0242},
      {"measurement": "solubility (mole fraction)", "setting": "in water, 303.15 K", "value": 0.0279},
      {"measurement": "solubility (mole fraction)", "setting": "in water, 308.15 K", "value": 0.0326},
      {"measurement": "solubility (mole fraction)", "setting": "in water, 313.15 K", "value": 0.038},
      {"measurement": "solubility (mole fraction)", "setting": "in water, 318.15 K", "value": 0.0458},
      {"measurement": "solubility (mole fraction)", "setting": "in water, 323.15 K", "value": 0.0532}
    ]}
  ]
}
